Data taken from a compilation of properties of binary mixtures (doi:10.1007/s10953-019-00868-0).

Assay: xn = mol fraction of the nth substance listed
Settings: 101.3 kPa

CCCC[n+]1ccn(C)c1.F[B-](F)(F)F + NCCNCCN
x1 = 1
Settings | viscosity [mPa·s]
313.15 K | 51.4
318.15 K | 42.1
323.15 K | 34.8
333.15 K | 24.7

NCCNCCN + CCCC[n+]1ccn(C)c1.F[B-](F)(F)F
viscosity [mPa·s]
Settings | 298.15 K | 303.15 K | 308.15 K | 313.15 K | 318.15 K | 323.15 K | 328.15 K | 333.15 K
x2 = 0 | – | 4.5 | 3.86 | 3.4 | 3.05 | 2.7 | 2.45 | 2.032
x2 = 0.051 | 6.71 | 5.56 | 4.85 | 4.31 | – | 3.55 | 3.2 | 2.67
x2 = 0.1986 | 12.1 | 10.27 | 8.94 | – | 7.06 | 6.33 | 5.68 | –
x2 = 0.2998 | 17.35 | – | – | 10.9 | 9.7 | – | – | –
x2 = 0.3995 | – | 19.78 | 16.7 | – | 12.77 | – | – | 8.72
x2 = 0.4992 | 31.5 | – | 22.15 | – | 16.63 | 14.65 | – | –
x2 = 0.5905 | – | – | 28.1 | 24.07 | 20.88 | – | 15.53 | 13.88
x2 = 0.6974 | 52.6 | – | 36.3 | – | 26.6 | 23.13 | – | –
x2 = 0.8012 | 67.1 | 56.4 | 46 | 38.8 | 33.2 | 28.5 | 23.39 | 21.3
x2 = 0.8948 | 82.6 | – | 55.7 | 46.5 | 39.2 | 33.3 | 26.7 | 24.18
x2 = 0.9496 | 91.9 | 76.4 | 60.4 | 49.8 | 42 | – | 27.2 | –
